According to US5242946A, “Treating herpes Viral infections” (Bio-Mega, Inc., priority 1988, dated 1993):

Key:
[1] = biological target: HSV-1 ribonucleotide reductase (Human alphaherpesvirus 1 strain 17, UniProt P08543+P10224); experiment: Inhibition of HSV-1 ribonucleotide reductase (reduction of CDP); assay type: biochemical, herpes simplex virus (type 1), strain F; settings: for selective inhibition of the viral ribonucleotide reductase over the cellular ribonucleotide reductase: HSV-1 versus hamster 96-V-2(600) ribonucleotide reductase
HSV-1 ribonucleotide reductase, sequence (P10224 whole entry): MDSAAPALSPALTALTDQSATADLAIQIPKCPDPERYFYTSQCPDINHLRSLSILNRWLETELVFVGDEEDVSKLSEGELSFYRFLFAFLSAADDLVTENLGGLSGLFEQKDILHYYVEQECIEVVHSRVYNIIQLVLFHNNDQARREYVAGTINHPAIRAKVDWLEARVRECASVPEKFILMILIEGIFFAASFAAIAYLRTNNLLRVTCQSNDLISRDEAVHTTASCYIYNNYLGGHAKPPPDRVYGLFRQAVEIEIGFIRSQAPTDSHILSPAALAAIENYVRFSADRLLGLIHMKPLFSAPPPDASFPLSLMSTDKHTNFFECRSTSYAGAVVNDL
HSV-1 ribonucleotide reductase, sequence (P08543 whole entry): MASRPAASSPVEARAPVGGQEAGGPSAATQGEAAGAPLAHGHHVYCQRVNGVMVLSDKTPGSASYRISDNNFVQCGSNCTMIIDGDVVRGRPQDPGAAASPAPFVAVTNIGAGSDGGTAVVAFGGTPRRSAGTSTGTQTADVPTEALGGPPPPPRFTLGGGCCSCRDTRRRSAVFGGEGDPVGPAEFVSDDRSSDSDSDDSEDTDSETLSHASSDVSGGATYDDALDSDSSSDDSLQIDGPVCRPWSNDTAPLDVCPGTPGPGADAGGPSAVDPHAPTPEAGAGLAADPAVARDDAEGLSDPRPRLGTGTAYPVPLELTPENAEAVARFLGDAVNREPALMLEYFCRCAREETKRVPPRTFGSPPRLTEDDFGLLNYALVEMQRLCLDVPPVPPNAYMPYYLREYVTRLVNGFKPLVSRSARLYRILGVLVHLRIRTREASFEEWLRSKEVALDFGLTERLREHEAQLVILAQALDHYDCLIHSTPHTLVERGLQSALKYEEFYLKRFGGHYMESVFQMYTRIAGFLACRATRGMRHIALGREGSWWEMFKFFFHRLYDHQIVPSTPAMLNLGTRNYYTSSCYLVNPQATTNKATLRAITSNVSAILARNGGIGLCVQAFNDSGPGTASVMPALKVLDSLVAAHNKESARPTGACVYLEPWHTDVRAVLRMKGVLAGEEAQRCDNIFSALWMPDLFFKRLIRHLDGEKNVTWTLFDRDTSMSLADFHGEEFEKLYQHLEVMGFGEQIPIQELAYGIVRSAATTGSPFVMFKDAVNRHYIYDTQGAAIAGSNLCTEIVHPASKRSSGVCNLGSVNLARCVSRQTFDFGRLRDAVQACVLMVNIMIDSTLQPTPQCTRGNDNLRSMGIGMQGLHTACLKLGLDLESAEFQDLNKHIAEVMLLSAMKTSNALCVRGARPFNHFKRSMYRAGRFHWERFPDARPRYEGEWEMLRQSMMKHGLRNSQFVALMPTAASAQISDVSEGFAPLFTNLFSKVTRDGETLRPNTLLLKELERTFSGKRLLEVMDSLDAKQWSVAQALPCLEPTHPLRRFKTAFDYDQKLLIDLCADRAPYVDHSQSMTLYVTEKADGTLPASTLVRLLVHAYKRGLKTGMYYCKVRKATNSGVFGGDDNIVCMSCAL

[2] = biological target: T1, Hamster 96-V-2(600) ribonucleotide reductase (Cricetulus griseus, UniProt G3I2K8+G3I3B7); experiment: Inhibition of hamster 96-V-2(600) ribonucleotide reductase (reduction of CDP); assay type: biochemical, Chinese hamster; settings: partially purified enzyme 40 μg, in the presence of adenosine triphosphate (4 mM) and magnesium chloride (11.5 mM)
T1 construct: overproducing strain; endogenous in cells; host or cells: 96-V-2(600), overproducing strain of a Chinese hamster lung cell line (partially purified)
T1 sequence (G3I3B7 entry or part of it): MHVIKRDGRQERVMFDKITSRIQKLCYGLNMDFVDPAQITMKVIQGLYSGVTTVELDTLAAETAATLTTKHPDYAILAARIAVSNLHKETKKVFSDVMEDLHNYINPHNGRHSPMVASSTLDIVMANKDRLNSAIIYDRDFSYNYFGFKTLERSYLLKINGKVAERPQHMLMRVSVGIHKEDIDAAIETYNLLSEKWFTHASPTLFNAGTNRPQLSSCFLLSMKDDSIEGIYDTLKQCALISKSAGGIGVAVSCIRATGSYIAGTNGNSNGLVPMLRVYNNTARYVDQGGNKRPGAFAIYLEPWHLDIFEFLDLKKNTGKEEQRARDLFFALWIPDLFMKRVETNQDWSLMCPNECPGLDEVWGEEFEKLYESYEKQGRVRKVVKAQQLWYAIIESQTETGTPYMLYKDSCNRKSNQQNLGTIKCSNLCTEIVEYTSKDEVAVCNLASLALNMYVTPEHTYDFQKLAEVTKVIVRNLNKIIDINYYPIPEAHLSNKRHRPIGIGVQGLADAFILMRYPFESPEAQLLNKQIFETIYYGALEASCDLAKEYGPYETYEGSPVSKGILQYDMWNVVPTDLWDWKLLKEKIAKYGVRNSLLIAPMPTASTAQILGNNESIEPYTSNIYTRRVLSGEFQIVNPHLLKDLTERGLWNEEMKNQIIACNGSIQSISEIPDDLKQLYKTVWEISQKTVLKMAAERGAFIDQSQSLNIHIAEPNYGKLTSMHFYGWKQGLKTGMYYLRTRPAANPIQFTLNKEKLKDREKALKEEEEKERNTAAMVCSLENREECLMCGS
T1 sequence (G3I2K8 entry or part of it): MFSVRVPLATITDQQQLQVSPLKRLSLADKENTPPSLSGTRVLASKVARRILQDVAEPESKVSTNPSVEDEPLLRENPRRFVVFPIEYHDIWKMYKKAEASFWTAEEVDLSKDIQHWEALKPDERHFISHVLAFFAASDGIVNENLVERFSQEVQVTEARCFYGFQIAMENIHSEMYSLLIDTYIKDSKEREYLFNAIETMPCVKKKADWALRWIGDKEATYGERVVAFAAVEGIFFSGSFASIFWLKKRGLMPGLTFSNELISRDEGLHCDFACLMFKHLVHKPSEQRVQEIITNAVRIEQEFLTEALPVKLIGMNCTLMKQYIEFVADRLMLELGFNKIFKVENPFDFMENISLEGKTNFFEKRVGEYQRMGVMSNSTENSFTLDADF
Experimental: Hamster 96-V-2(600) ribonucleotide reductase (partially purified) was obtained from an overproducting strain of a Chinese hamster lung cell line as described by W. H. Lewis and P. R. Scinivasan, Mol. Cell Biol., 3, 1053 (1983).
Samples of the HSV-1 ribonucleotide reductase (65 μg with a specific activity of 26 units per mg) were mixed with increasing concentrations of the test compound, i.e. the naphthalene noted in the title of this example, in a series of tubes. Ribonucleotide reductase activity was assayed by monitoring the reduction of cytidine diphosphate (CDP) as described by Cohen et al., supra. The standard reaction mixture, in a final volume of 60 μl, contained: 50 mM, N-2-hydroxyethylpiperazine-N'-2-ethanesulfonic acid (pH 7.8); 4 mM NaF, 30 mM DL-dithiothreitol (DTT); 1 mM bacitracin, 54 μM CDP and 0.25 μCi of [^3 H]CDP. After 30 minutes of incubation at 37° C., the reaction was stopped by immersing the tube in boiling water for 4 minutes. The precipitate was removed by centrifugation. Nucleotides in the supernatant were converted to nucleosides by enzymatic hydrolysis. The deoxyribonucleosides were subsequently separated from the ribonucleosides by ascending polyethyleneimine-celulose chromatography. […] The results, shown in FIG. 1, are expressed as a percentage of the activity obtained in the controls.

SMILES | selective inhibition of the viral ribonucleotide reductase over the cellular ribonucleotide reductase [1] | IC50 [2] | IC50 ([1]; partially purified enzyme 65 μg, 54 μM CDP, 30 minutes at 37° C., pH 7.8, read-out: IC50, fifty percent reduction of the HSV-1 ribonucleotide reductase activity)
COc1c(OC)c(OC(C)=O)c2ccccc2c1OC(C)=O [2,3-dimethoxy-1,4-1,4-naphthalenediol diacetate] | selective inhibition |  | 
COc1c(OC)c(OC(C)=O)c2cc(Cl)ccc2c1OC(C)=O [6-Chloro-2,3-dimethoxy-1,4-naphthalenediol diacetate] | selective inhibition | > 250 µM | 31 µM
COc1ccc2c(OC(C)=O)c(OC)c(OC)c(OC(C)=O)c2c1 [2,3,6-trimetoxy-1,4-naphthalenediol diacetate] | selective inhibition |  | 
